Laboratory results: publication PMC12454493, “Insight on novel sulfamoylphenyl pyrazole derivatives as anticancer carbonic anhydrase inhibitors” (Molecular Diversity, 2024)

How the values were obtained:
COLO 205 = experiment: NCI-60 one-dose SRB screen (Colon Cancer); type: cell-based; details: Homo sapiens, single dose 10 µM, 48 h, read-out: Growth inhibition percent (GI %)
HT29 = experiment: NCI-60 one-dose SRB screen (Colon Cancer); type: cell-based; details: Homo sapiens, HT-29, single dose 10 µM, 48 h, read-out: Growth inhibition percent (GI %)
HCC-2998 = experiment: NCI-60 one-dose SRB screen (Colon Cancer); type: cell-based; details: Homo sapiens, single dose 10 µM, 48 h, read-out: Growth inhibition percent (GI %)
KM12 = experiment: NCI-60 one-dose SRB screen (Colon Cancer); type: cell-based; details: Homo sapiens, single dose 10 µM, 48 h, read-out: Growth inhibition percent (GI %)
SW-620 = experiment: NCI-60 one-dose SRB screen (Colon Cancer); type: cell-based; details: Homo sapiens, single dose 10 µM, 48 h, read-out: Growth inhibition percent (GI %)
HCT-15 = experiment: NCI-60 one-dose SRB screen (Colon Cancer); type: cell-based; details: Homo sapiens, single dose 10 µM, 48 h, read-out: Growth inhibition percent (GI %)
HCT-116 = experiment: NCI-60 one-dose SRB screen (Colon Cancer); type: cell-based; details: Homo sapiens, single dose 10 µM, 48 h, read-out: Growth inhibition percent (GI %)
T-47D = experiment: NCI-60 one-dose SRB screen (Breast Cancer); type: cell-based; details: Homo sapiens, T47D, single dose 10 µM, 48 h, read-out: Growth inhibition percent (GI %)
MDA-MB-231/ATCC = experiment: NCI-60 one-dose SRB screen (Breast Cancer); type: cell-based; details: Homo sapiens, single dose 10 µM, 48 h, read-out: Growth inhibition percent (GI %)
MCF-7 = experiment: NCI-60 one-dose SRB screen (Breast Cancer); type: cell-based; details: Homo sapiens, MCF7, single dose 10 µM, 48 h, read-out: Growth inhibition percent (GI %)
HS 578T = experiment: NCI-60 one-dose SRB screen (Breast Cancer); type: cell-based; details: Homo sapiens, single dose 10 µM, 48 h, read-out: Growth inhibition percent (GI %)
HOP-92 = experiment: NCI-60 one-dose SRB screen (Non-Small Cell Lung Cancer); type: cell-based; details: Homo sapiens, single dose 10 µM, 48 h, read-out: Growth inhibition percent (GI %)
A549/ATCC = experiment: as above; type: cell-based; details: Homo sapiens, single dose 10 µM, 48 h, read-out: Growth inhibition percent (GI %)
NCI-H522 = experiment: as above; type: cell-based; details: Homo sapiens, single dose 10 µM, 48 h, read-out: Growth inhibition percent (GI %)
NCI-H322M = experiment: as above; type: cell-based; details: Homo sapiens, single dose 10 µM, 48 h, read-out: Growth inhibition percent (GI %)
NCI-H460 = experiment: as above; type: cell-based; details: Homo sapiens, single dose 10 µM, 48 h, read-out: Growth inhibition percent (GI %)
NCI-H23 = experiment: as above; type: cell-based; details: Homo sapiens, single dose 10 µM, 48 h, read-out: Growth inhibition percent (GI %)
EKVX = experiment: as above; type: cell-based; details: Homo sapiens, single dose 10 µM, 48 h, read-out: Growth inhibition percent (GI %)
HOP-62 = experiment: as above; type: cell-based; details: Homo sapiens, single dose 10 µM, 48 h, read-out: Growth inhibition percent (GI %)
NCI-H226 = experiment: as above; type: cell-based; details: Homo sapiens, single dose 10 µM, 48 h, read-out: Growth inhibition percent (GI %)
CCRF-CEM = experiment: NCI-60 one-dose SRB screen (Leukemia); type: cell-based; details: Homo sapiens, single dose 10 µM, 48 h, read-out: Growth inhibition percent (GI %)
HL-60(TB) = experiment: NCI-60 one-dose SRB screen (Leukemia); type: cell-based; details: Homo sapiens, single dose 10 µM, 48 h, read-out: Growth inhibition percent (GI %)
MOLT-4 = experiment: NCI-60 one-dose SRB screen (Leukemia); type: cell-based; details: Homo sapiens, single dose 10 µM, 48 h, read-out: Growth inhibition percent (GI %)
SR = experiment: NCI-60 one-dose SRB screen (Leukemia); type: cell-based; details: Homo sapiens, single dose 10 µM, 48 h, read-out: Growth inhibition percent (GI %)
K-562 = experiment: NCI-60 one-dose SRB screen (Leukemia); type: cell-based; details: Homo sapiens, K562, single dose 10 µM, 48 h, read-out: Growth inhibition percent (GI %)
RPMI-8226 = experiment: NCI-60 one-dose SRB screen (Leukemia); type: cell-based; details: Homo sapiens, single dose 10 µM, 48 h, read-out: Growth inhibition percent (GI %)
DU-145 = experiment: NCI-60 one-dose SRB screen (Prostate Cancer); type: cell-based; details: Homo sapiens, single dose 10 µM, 48 h, read-out: Growth inhibition percent (GI %)
PC-3 = experiment: NCI-60 one-dose SRB screen (Prostate Cancer); type: cell-based; details: Homo sapiens, single dose 10 µM, 48 h, read-out: Growth inhibition percent (GI %)
SK-MEL-5 = experiment: NCI-60 one-dose SRB screen (Melanoma); type: cell-based; details: Homo sapiens, single dose 10 µM, 48 h, read-out: Growth inhibition percent (GI %)
MALME-3M = experiment: NCI-60 one-dose SRB screen (Melanoma); type: cell-based; details: Homo sapiens, single dose 10 µM, 48 h, read-out: Growth inhibition percent (GI %)
M14 = experiment: NCI-60 one-dose SRB screen (Melanoma); type: cell-based; details: Homo sapiens, single dose 10 µM, 48 h, read-out: Growth inhibition percent (GI %)
MDA-MB-435 = experiment: NCI-60 one-dose SRB screen (Melanoma); type: cell-based; details: Homo sapiens, single dose 10 µM, 48 h, read-out: Growth inhibition percent (GI %)
SK-MEL-28 = experiment: NCI-60 one-dose SRB screen (Melanoma); type: cell-based; details: Homo sapiens, single dose 10 µM, 48 h, read-out: Growth inhibition percent (GI %)
SK-MEL-2 = experiment: NCI-60 one-dose SRB screen (Melanoma); type: cell-based; details: Homo sapiens, single dose 10 µM, 48 h, read-out: Growth inhibition percent (GI %)
LOX IMVI = experiment: NCI-60 one-dose SRB screen (Melanoma); type: cell-based; details: Homo sapiens, single dose 10 µM, 48 h, read-out: Growth inhibition percent (GI %)
UACC-257 = experiment: NCI-60 one-dose SRB screen (Melanoma); type: cell-based; details: Homo sapiens, single dose 10 µM, 48 h, read-out: Growth inhibition percent (GI %)
UACC-62 = experiment: NCI-60 one-dose SRB screen (Melanoma); type: cell-based; details: Homo sapiens, single dose 10 µM, 48 h, read-out: Growth inhibition percent (GI %)
OVCAR-5 = experiment: NCI-60 one-dose SRB screen (Ovarian cancer); type: cell-based; details: Homo sapiens, single dose 10 µM, 48 h, read-out: Growth inhibition percent (GI %)
IGROV1 = experiment: NCI-60 one-dose SRB screen (Ovarian cancer); type: cell-based; details: Homo sapiens, IGROV-1, single dose 10 µM, 48 h, read-out: Growth inhibition percent (GI %)
OVCAR-3 = experiment: NCI-60 one-dose SRB screen (Ovarian cancer); type: cell-based; details: Homo sapiens, single dose 10 µM, 48 h, read-out: Growth inhibition percent (GI %)
NCI/ADR-RES = experiment: NCI-60 one-dose SRB screen (Ovarian cancer); type: cell-based; details: Homo sapiens, single dose 10 µM, 48 h, read-out: Growth inhibition percent (GI %)
SK-OV-3 = experiment: NCI-60 one-dose SRB screen (Ovarian cancer); type: cell-based; details: Homo sapiens, single dose 10 µM, 48 h, read-out: Growth inhibition percent (GI %)
OVCAR-4 = experiment: NCI-60 one-dose SRB screen (Ovarian cancer); type: cell-based; details: Homo sapiens, single dose 10 µM, 48 h, read-out: Growth inhibition percent (GI %)
OVCAR-8 = experiment: NCI-60 one-dose SRB screen (Ovarian cancer); type: cell-based; details: Homo sapiens, single dose 10 µM, 48 h, read-out: Growth inhibition percent (GI %)

For `NC(=S)NNC(=O)c1cn(-c2ccc(S(N)(=O)=O)cc2)nc1-c1ccc(Br)cc1` [Compound 9d, 2-[3-(4-Bromophenyl)-1-(4-sulfamoylphenyl)-1H-pyrazole-4-carbonyl] hydrazine-1-carbothioamide], the inhibition at 10 µM (COLO 205) was under 5%, the inhibition at 10 µM (HT29) was under 5% and the inhibition at 10 µM (HCC-2998) was under 5%. The inhibition at 10 µM (KM12) was under 5%, the inhibition at 10 µM (SW-620) was under 5% and the inhibition at 10 µM (HCT-15) was under 5%. It also gave an inhibition at 10 µM (HCT-116) of under 5%, a melting point of 238 to 241 °C and an inhibition at 10 µM (T-47D) of 7.04%. For the same compound, the inhibition at 10 µM (MDA-MB-231/ATCC) was under 5%, the inhibition at 10 µM (MCF-7) was under 5% and the inhibition at 10 µM (HS 578T) was 6.72%. For the same compound, the inhibition at 10 µM (HOP-92) was under 5%, the inhibition at 10 µM (A549/ATCC) was under 5% and the inhibition at 10 µM (NCI-H522) was 8.15%. The inhibition at 10 µM (NCI-H322M) was 14.9%, the inhibition at 10 µM (NCI-H460) was under 5% and the inhibition at 10 µM (NCI-H23) was under 5%. For the same compound, the inhibition at 10 µM (EKVX) was under 5%, the inhibition at 10 µM (HOP-62) was under 5% and the inhibition at 10 µM (NCI-H226) was under 5%. The inhibition at 10 µM (CCRF-CEM) was under 5%, the inhibition at 10 µM (HL-60(TB)) was under 5% and the inhibition at 10 µM (MOLT-4) was under 5%. The inhibition at 10 µM (SR) was 6.97%, the inhibition at 10 µM (K-562) was under 5% and the inhibition at 10 µM (RPMI-8226) was under 5%. It also gave an inhibition at 10 µM (DU-145) of under 5%, an inhibition at 10 µM (PC-3) of under 5% and an inhibition at 10 µM (SK-MEL-5) of under 5%. For the same compound, the inhibition at 10 µM (MALME-3M) was 10.9%, the inhibition at 10 µM (M14) was under 5% and the inhibition at 10 µM (MDA-MB-435) was under 5%. For the same compound, the inhibition at 10 µM (SK-MEL-28) was under 5%, the inhibition at 10 µM (SK-MEL-2) was under 5% and the inhibition at 10 µM (LOX IMVI) was under 5%. For the same compound, the inhibition at 10 µM (UACC-257) was under 5%, the inhibition at 10 µM (UACC-62) was under 5% and the inhibition at 10 µM (OVCAR-5) was under 5%. For the same compound, the inhibition at 10 µM (IGROV1) was 20.2%, the inhibition at 10 µM (OVCAR-3) was under 5% and the inhibition at 10 µM (NCI/ADR-RES) was under 5%. It also gave an inhibition at 10 µM (SK-OV-3) of under 5%, an inhibition at 10 µM (OVCAR-4) of under 5% and an inhibition at 10 µM (OVCAR-8) of under 5%.
